We go through two substances from patent US6624140B1, “Synthetic peptides with antimicrobial and endotoxin neutralizing properties for management of the sepsis syndrome” (Academisch Ziekenhuis Bij de Universiteit van Amsterdam …, priority 1997, dated 2003).

No end group written: not given here.

The nature of assay [1]: Endotoxin Inhibition ELISA (EIE), competitive inhibition of Lipid A binding. On the set-up: species or system Escherichia coli. Particulars: biotinylated BP2; 1 pg/ml E. coli 0111:B4 LPS. How it is done:
FIG. 6. Competitive inhibition of binding of synthetic peptide BP2 to immobilized lipid A by endotoxin. Biotinylated BP2 peptide in the indicated concentration range was pre-incubated with E. coli 0111:B4 LPS at 1 pg/ml for 20 min at 23° C. and the residual endotoxin binding activity was determined with the use of a lipid A binding ELISA microplate assay. Individual values are the means of triplicate experiments corrected for non-specific binding.
FIGS. 7A and 7B. Detection of endotoxin in solution with a Lipid A binding assay, the endotoxin inhibition ELISA (EIE) microplate assay. Dose-response of residual LPS binding activity of synthetic peptide BP2 at 8 ng/ml after pre-incubation with E. coli 0111:B4 LPS in the ranges from 0.1 to 1000 pg/ml (Panel A) or from 0.1 to 100 pg/ml (Panel B).
Capture of the TAG labeled J5 LPS by immobilized synthetic peptide was quantitated by electrochemiluminescence detection subsequent to washing steps with phosphate buffer containing 0.1% (w/v) Triton X100 to remove excess unbound LPS. […] This confirms the high capacity of immobilized peptides of the invention for endotoxin in solution. […] LPS with high affinity and are universal lipid A binding ligands. […]

The nature of assay [2]: Murine model of lethal endotoxemia. It counts as in vivo, mice. Particulars: at 7 days; 5 mg/kg i.p. 20 min before Actinomycin D 800 μg/Kg plus LPS 5 μg/Kg; three experiments combined. On the procedure:
FIG. 13. Efficacy of synthetic peptide BP2 on survival in a murine model of lethal endotoxemia. Outbred femal Swiss-Webster mice of 7 to 8 weeks, weighing 28 to 30 g were treated with BP2 peptide by intraperitoneal (i.p) administration of a dose of 5 mg/Kg in pyrogen-free saline. Twenty minutes later the mice were challenged by i.p administration of the sensitizing agent Actinomycin D at 800 μg/Kg plus lethal concentrations of purified E. coli 0111:B4 LPS at 5 or 11 μg/Kg. Control groups only received Actinomycin D plus LPS. Survival was recorded at 24 h intervals during a 7 day period of observation. The indicated values are the combined results of three independent experiments.
The efficacy of the peptides of the invention in the protection of experimental animals against the toxic effects of LPS or live pathogenic bacteria was investigated with the use of murine models of lethal endotoxemia and peritonitis Laboratory mice, which are normally tolerant to high doses of endotoxin and require a lethal dose (LD100) of approximately 1 mg, may be sensitized with Actinomycin D to 10,000×lower amounts of endotoxin for lethality. […] The survival of the treated animals was recorded at 24 h intervals during a seven day period of observation and compared with the control groups. […]

Assay [3] is described as follows: Double-immunodiffusion against 0111:B4 LPS. The following applies: 0.8% agarose, 16 h at 20° C.; data not shown. It counts as binding, Escherichia coli. On the procedure:
Double-immunodiffusion of the peptides of the invention against ‘rough’ R-type E. coli D31m4 Re-LPS (List Biological Laboratories Inc., Calif.) or the structurally more complex ‘smooth’ S-type E. coli 0111:B4 LPS (Sigma Chemical Co., Rockford, Ill.) was performed in 0.8% (w/v) agarose containing 50 mM Tris and 0.1% (w/v) Triton X100, pH 7.5. for 16 h at 20° C. PmB and BPI(85-102) were included as control compounds for comparative purposes. The microprecipitates formed were visualized by Coommassie brilliant blue staining. […] Since the amount of precipitate formed is a function of valency, the peptides of the invention appear to be capable of a high degree of intermolecular binding of LPS molecules via the Lipid A moieties. […] The degree of precipitation of endotoxin by the synthetic peptides according to the invention was determined by measurement of the optical density of insoluble complexes formed at 340 nm (FIG. 2). […] Binding characteristics of biotinylated derivatives of the synthetic peptides BP1, BP2, BP2.1 and the control peptide BPI(85-102) were determined on ELISA microtiter plates coated with E. coli D31m4 Lipid A. Specific binding of the biotinylated peptides to the immobilized Lipid A was determined by development with Streptavidin-HRP and 3, 5, 3′, 5′ tetra-methylbenzidine (TMB) substrate and expressed as the corrected optical density at 450 nm. […]

Take “GKWKLFKKAFKKFLKILAC-OH [BP2, Gly-Lys-Trp-Lys-Leu-Phe-Lys-Lys-Ala-Phe-Lys-Lys-Phe-Leu-Lys-Ile-Leu-Ala-Cys]”: in assay [1], the “inhibition of binding of peptide to immobilized Lipid A” value came out at 65%. Besides, the survival in assay [2] was 75%.

For the substance “Ile-Lys-Ile-Ser-Gly-Lys-Trp-Lys-Ala-Gin-Lys-Arg-Phe-Leu-Lys-Met-Ser-Gly-(Cys) (IKISGKWKAQKRFLKMSGC; listed as Homo sapiens) [BPI(85-102), reference compound]”, the “precipitation of 0111 LPS” value in assay [3] was “considerably less”.
